Experiments:
Format in all cases: in vivo, C57BL/6 mice
[1] = tested on: DSS-induced chronic colitis; test: DSS-induced chronic colitis: body weight and colon length (Example 6)
[2] = tested on: DSS-induced acute colitis; test: DSS-induced acute colitis (Example 6); settings: 3% DSS 7 days; treatment from time of DSS exposure; FIGS. 12A-12C
Excerpt: Wild-type (WT) C57BL/6 female mice, with high susceptibility to DSS-induced colitis, were used throughout and purchased from the Jackson laboratories (Bar Harbor, Me.). All mice were housed five per cage under specific pathogen-free conditions, allowed standard diet and water ad libitum, and used at 6-8 wk of age. Acute DSS colitis was induced by giving mice distilled drinking water containing 3% (wt./vol) DSS (Mol.Wt.=40 kDa; ICN Biochemicals, Aurora, Ohio) for 7 days. For induction of chronic colitis, mice were treated with 5 days of 2.5% DSS followed by 7 days of normal drinking water for a total of 3 cycles. Body weight was measured three times/week throughout the experiment. The maximum mortality observed following induction of acute colitis was 15% averaged over all studies, while no significant mortality was seen any groups in the chronic colitis model. Maximum weight loss in either model was ˜25%. […] In FIG. 12A, changes in body weight are expressed as a percent weight loss from baseline and plotted versus time post initiation of DSS treatment (x-axis). […] In FIGS. 12B and 12C, changes in colon length and 24 hr cytokine production from colon explant cultures respectively were assessed on day 9 following initiation of DSS treatment for mice shown in FIG. 12A and are expressed as mean±SD.

[3] = tested on: PP cells isolated from colonic tissue; test: FACS staining of CD3+ and Foxp3+ cells in PP cells isolated from colonic tissue, chronic colitis; settings: DSS chronic colitis, treatment as per FIG. 7A
[4] = tested on: colonic explants from mice with chronic colitis; test: Cytokine release from 24 hr colonic explant cultures, chronic colitis (Example 6); settings: 24 hr colonic explant cultures harvested at 38 d; FIG. 8
[5] = tested on: DSS-induced chronic colitis; test: Effect of T depletion (anti-CD4 mAb) on protection from DSS-induced chronic colitis; settings: no anti-CD4 mAb

## C[C@]12CCC(=O)C=C1CC[C@@H]1[C@@H]2[C@@H](O)C[C@@]2(C)[C@H]1CC[C@]2(O)C(=O)COC(=O)CCC(=O)O [Solu-Cortef]
[1]; Ig weekly ×5 im from start of first DSS cycle, Solu-Cortef 6 μg/mouse alternate days, FIG. 7A
  weight loss in second and third cycle of DSS treatment: attenuation of weight loss
[1]; all DSS cycles, 6 μg/mouse on alternate days
  suppression of disease in chronic colitis: active in suppressing disease at all times
[2]
  protection from pathology of acute colitis (weight loss, colon length, production of inflammatory cytokines): protected
[3]; PP cells from 2-3 mice/group
  % Ant-CD3: 4.4 ± 2.2%
  % Anti-Foxp3: 0.2 ± 0.2%
[3]; ratio, PP cells
  Foxp3:CD3: 0.04
[4]
  release of inflammatory cytokines IFNγ, TNFα, IL-1β, IL-17 and IL-6: No such increased inflammatory cytokine release
[5]; 5 mice/group, FIG. 9A
  weight loss after induction of chronic colitis: protected
[5]; FIG. 10
  release of inflammatory cytokines from colon explant cultures: attenuation of release

From patent publication US20220356232A1, “A COMBINATION OF PLASMA IMMUNOGLOBULIN AND ANTIGEN-SPECIFIC IMMUNOGLOBULIN FOR THE MODIFICATION OF THE IMMUNE SYSTEM AND THE TREATMENT OR PREVENTION OF AUTOIMMUNE DISEASES” (Network Immunology Inc., priority 2019, published 2022)
